Assay results from US5840936A, “Aminosterol compounds useful as inhibitors of the sodium/proton exchanger (NHE)” (priority 1995, dated 1998).
Entries after “also recorded” stand apart in the source; their conditions may differ.

Assays:
[1] = system: Human microvascular endothelial cells; experiment: Growth inhibition in vitro, human microvascular endothelial cells; assay type: cell-based; conditions: 10 μg/ml
Excerpt: (§1) As set forth in Table 7 below, all malignant tumors evaluated in tissue culture, endothelial cells and vascular smooth muscle cells were sensitive to inhibition. Thus, compound 1436 has application in the control of growth factor dependent proliferation of many types of tissue.

ELC = ELC MTT; assay type: cell-based; conditions: Table II; read-out: ELC MTT, Minimum Effective Concentration
[2] = system: Human ovarian carcinoma SKOV3; experiment: Growth inhibition in vitro, SKOV3; assay type: cell-based; conditions: 10 μg/ml
Excerpt: as §1

[3] = Effect on growth and weight gain in mice; assay type: in vivo, C57B mice; conditions: 10 mg/kg QTD i.p., after 6 doses, about 1 month
Procedure: Animals were dosed QTD (i.p.) starting on Day 1. […] Animals receiving 5 mg/kg QTD experienced about a 50% reduction in growth, compared to untreated controls, while animals receiving 1 mg/kg QTD were affected by about 10%. […] They appeared very much like hypophysectamized animals might appear.

Murine L1210 leukemia = experiment: Growth inhibition in vitro, L1210; assay type: cell-based; conditions: 10 μg/ml
Excerpt: as §1

Xenopus laevis heart = experiment: Isolated frog heart, persistence of beating ex vivo; conditions: 10 μg/ml, room temperature, adrenaline 50 μg/ml; control about one hour
Procedure: To determine if compound 1436 has such utility, the following experiment was performed. The heart of a juvenile Xenopus laevis frog was dissected from the living animal. The heart was placed into a Petri dish containing Krebs-Ringer buffer with adrenaline 50 μg/ml, and examined with the naked eye. At room temperature, the heart continued beating in a coordinated fashion (atrial beat followed by ventricular beat) for about one hour. In the presence of 10 μg/ml of compound 1436, spontaneous beating persisted up to 24 hours.

[4] = Effect on arterial resistance and blood pressure; assay type: in vivo, rat
Procedure: A 200-g rat was catheterized in the right carotid artery, and the compound was introduced over a ten-second period to a total dosage of 5 mg/kg. Within 30 seconds, the mean arterial pressure had fallen from about 100 mm Hg to about 70 mm Hg, with a marked reduction in pulse pressure from about 40 mm to about 10 mm. […] If cardiac output was basically unaffected, reduction in blood pressure would have resulted principally from a reduction in system resistance.
At that time, 40 μg of noradrenaline was introduced.

Human melanoma WM 1617 = experiment: Growth inhibition in vitro, WM 1617; assay type: cell-based; conditions: 10 μg/ml
Excerpt: as §1

Lewis lung carcinoma = experiment: Growth inhibition in vitro, Lewis lung carcinoma; assay type: cell-based; conditions: 10 μg/ml
Excerpt: as §1

[5] = system: Human colon carcinoma HT29; experiment: Growth inhibition in vitro, HT29; assay type: cell-based; conditions: 10 μg/ml
Excerpt: as §1

[6] = system: L1210 lymphoblastic leukemia; experiment: Mouse model of L1210 leukemia; conditions: highest dose (10 mg/kg every 3 days i.p.)
Excerpt: C57B mice were inoculated with L1210 lymphoblastic leukemia cells at an inoculum that causes leukemia in 100% of animals.

[7] = system: Human colon carcinoma SW948; experiment: Growth inhibition in vitro, SW948; assay type: cell-based; conditions: 10 μg/ml
Excerpt: as §1

[8] = system: Xenopus tadpoles, stage 59-60; conditions: 10 μg/mL
[9] = system: Human coronary artery smooth muscle cells; experiment: Growth inhibition in vitro, human coronary artery smooth muscle cells; assay type: cell-based; conditions: 10 μg/ml
Excerpt: as §1

[10] = system: human coronary artery smooth muscle; experiment: Growth of human coronary artery smooth muscle in vitro; assay type: cell-based
Excerpt: Aminosterols of the invention may also have utility in inhibiting the growth factor mediated proliferation of smooth muscle within the artery. Following coronary angioplasty, reocclusion commonly occurs, secondary to reparative proliferation of the vascular smooth muscle within the wall of the surgically manipulated blood vessel. This process generally takes place over the course of 7-10 days. To evaluate whether an agent could prevent the growth factor mediated proliferation of smooth muscle within the artery, compound 1436 was evaluated in vitro for its effect on the proliferation of human coronary artery smooth muscle. Results for compound 1436 are shown in FIG. 13, and those for squalamine are shown in FIG. 14, with FIG. 15 being a composite logarithmic plot.

[11] = system: bovine pulmonary endothelial cells; experiment: Growth inhibition in vitro, bovine pulmonary endothelial cells; assay type: cell-based; conditions: 10 μg/ml
Excerpt: as §1

[12] = Fasting blood glucose in mice; assay type: in vivo, male CD-1 mice
Procedure: To study the effect of steroid administrator or the NHE responsible for secretion of insulin, several of the aminosterols from shark liver were administered to fasting mice. Male CD-1 mice were assigned to one of four treatment groups. Whole blood glucose was tested using glucometer (Lifescan Glucometer II and One Touch test strips). Statistical analysis was via one-way analysis of variance (ANOVA) followed by subsequent Bonferonni's t-test.

[13] = system: Xenopus tadpoles, stage 59-60; experiment: Xenopus tadpole assay; conditions: 10 μg/ml
Murine B16 melanoma = experiment: Growth inhibition in vitro, B16; assay type: cell-based; conditions: 10 μg/ml
Excerpt: as §1

[14] = system: human umbilical venous endothelial cells; experiment: Growth inhibition in vitro, human umbilical venous endothelial cells; assay type: cell-based; conditions: 10 μg/ml
Excerpt: as §1

rabbit NHE3 = rabbit NHE3 (Oryctolagus cuniculus, UniProt P26432); experiment: NHE3 inhibition, internal pH (BCECF-AM) in transfected PS120 fibroblasts; conditions: 10 μg/ml, acid preloaded
rabbit NHE3, sequence (P26432 30-832): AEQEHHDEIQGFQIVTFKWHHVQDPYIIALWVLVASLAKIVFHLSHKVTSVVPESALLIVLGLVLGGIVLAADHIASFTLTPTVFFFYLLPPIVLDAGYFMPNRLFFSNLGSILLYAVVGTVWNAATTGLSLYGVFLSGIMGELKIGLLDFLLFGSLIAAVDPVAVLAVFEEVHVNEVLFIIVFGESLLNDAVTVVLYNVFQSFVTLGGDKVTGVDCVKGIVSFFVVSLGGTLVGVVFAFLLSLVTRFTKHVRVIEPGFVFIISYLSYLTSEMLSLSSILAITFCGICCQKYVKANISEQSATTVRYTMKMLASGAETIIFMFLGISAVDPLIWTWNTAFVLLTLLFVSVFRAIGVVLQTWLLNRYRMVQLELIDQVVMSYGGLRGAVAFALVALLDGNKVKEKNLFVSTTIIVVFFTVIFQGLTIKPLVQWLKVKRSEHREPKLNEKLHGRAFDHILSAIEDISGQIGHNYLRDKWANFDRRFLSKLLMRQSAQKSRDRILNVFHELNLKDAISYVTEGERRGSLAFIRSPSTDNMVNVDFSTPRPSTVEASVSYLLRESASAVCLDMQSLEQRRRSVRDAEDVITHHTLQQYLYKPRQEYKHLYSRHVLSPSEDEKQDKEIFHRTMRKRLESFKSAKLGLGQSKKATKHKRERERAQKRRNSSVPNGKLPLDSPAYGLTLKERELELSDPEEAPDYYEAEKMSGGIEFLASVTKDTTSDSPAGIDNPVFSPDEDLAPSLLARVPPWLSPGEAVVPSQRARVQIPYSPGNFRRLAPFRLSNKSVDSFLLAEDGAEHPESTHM
Procedure: Internal pH was measured either following acid loading or in the absence of an acid-loading challenge, with the results shown in FIGS. 1A and 1B.
Specifically, PS120 fibroblasts transfected with rabbit NHE3 were grown in supplemented Dulbecco's-modified Eagle's medium as described by Levine et al., J. Biol. Chem. 268, 1993, 25527-25535. […] For cells not acid-preloaded, the actual internal pH value was monitored as a function of time following addition of squalamine, with the results depicted in FIG. 1B.
PS120 fibroblasts transfected with rabbit NHE3 were grown and acid preloaded by exposure to 40 mM NH4 Cl as described above in conjunction with FIGS. 1A and 1B. Internal cellular pH changes expressed as the rate of pH recovery as a function of restored extracellular sodium ion concentration following exposure to 10 μg/ml of the compound were assayed with the fluorescent dye BCECF-AM as described above.

B16 melanoma = experiment: Suppression of B16 melanoma growth in C57B mice; assay type: in vivo, mouse
Procedure: The growth of B16 melanoma in C57B mice is dependent upon neovascularization.
Using the growth of B16 melanoma cells in C57B mice, a recognized model for the evaluation of inhibitors of angiogenesis on the growth of cancers, the effects of subcutaneous, intraperitoneal and oral administration of squalamine were evaluated.
Animals were implanted with B16 melanoma followed by treatment with compound 1436 or 1256 administered in a combined schedule or separately. […] Thus, a combination of these two compounds achieves a theraputic benefit in tumors dependent on neovascularization that may prevent metastatic spread.

[15] = system: PHA-stimulated lymphocytes; experiment: Lymphocyte viability in HIV assay; assay type: cell-based; conditions: 10080 min
Excerpt: Results are tabulated below.

[16] = system: chick embryo vitelline capillaries; experiment: Chick embryo vitelline capillary regression assay; assay type: in vivo; design: key to Vitelline capillary regression: +: Vascular reactivity; 0: No vascular reactivity; +/-: Equivocal reactivity
Outline: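 Compounds were applied to 3-day chick embryos in 0.1 ml of 15% Ficol 400 and PBS. Regression of vitelline capillaries was scored visually 60 minutes later.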

CC(C)[C@@H](CC[C@@H](C)[C@H]1CC[C@H]2[C@@H]3[C@H](O)C[C@H]4C[C@@H](NCCCNCCCCNCCCN)CC[C@]4(C)[C@H]3CC[C@]12C)OS(=O)(=O)O [Compound 1436]
Inhibited in vitro: Human microvascular endothelial cells [1]: INHIBITED | minimal effective concentration (ELC): 16.7 µg/mL | Inhibited in vitro: Human ovarian carcinoma SKOV3 [2]: INHIBITED | Growth suppression [3]: growth was almost completely inhibited | Inhibited in vitro: Murine L1210 leukemia (Murine L1210 leukemia): INHIBITED | Persistence of spontaneous beating (Xenopus laevis heart): up to 24 hours | Reversibility of blood pressure effect ([4]; 40 μg of noradrenaline at 30 minutes): readily reversible by standard pharmacological practice | Change of effect over 30 minutes ([4]; 5 mg/kg i.v., followed for 30 minutes): without significant change | Pulse pressure after dosing ([4]; 5 mg/kg i.v., within 30 seconds, from about 40 mm): about 10 mm | Mean arterial pressure after dosing ([4]; 5 mg/kg i.v., within 30 seconds, from about 100 mm Hg): about 70 mm Hg | Inhibited in vitro: Human melanoma WM 1617 (Human melanoma WM 1617): INHIBITED | Inhibited in vitro: Lewis lung carcinoma (Lewis lung carcinoma): INHIBITED | Inhibited in vitro: Human colon carcinoma HT29 [5]: INHIBITED | Survival in mice bearing L1210 leukemia [6]: significant prolongation of life | Inhibited in vitro: Human colon carcinoma SW948 [7]: INHIBITED | Tadpole E (epithelial) [8]: ± | Tadpole GI (gastrointestinal) [8]: - | Tadpole M (melanocytes) [8]: + | Tadpole Mus (muscle) [8]: - | Tadpole V (vascular) [8]: + | Inhibited in vitro: Human coronary artery smooth muscle cells [9]: INHIBITED | Concentration maintaining quiescent state without loss of viability [10]: about 11 μg/ml | Suppression of growth of human coronary artery smooth muscle ([10]; in vitro): suppress in vitro the growth of human coronary artery smooth muscle | Inhibited in vitro: Bovine pulmonary endothelial cells [11]: INHIBITED | Hyperglycemia ([12]; i.v., 1436 in D5W, 1437 in water): caused hyperglycemia in mice | Fasting Blood Glucose Mean ± SEM ([12]; total dose 20 mg/kg i.v. (2 × 10 mg/kg), 30 min. after 2d dose): 105 ± 8.0 mg/dL | Tadpole assay, observed effects [13]: common vascular occlusive effect; also recorded: Gradual reduction in overall activity; also recorded: Melanocytes over head and tail began to swell, first exhibiting visibly distinct nuclei, followed by rupture into fragments; also recorded: dramatic disruption of melanocytes over its head, trunk, and tail, along with depression of its nervous system; also recorded: No effects are observed on epithelial cell integrity, vascular flow, erythrocyte volume, tissue integrity, muscle fiber striation, or GI tract activity | Tadpole time to death [13]: about 2 hours | Inhibited in vitro: Murine B16 melanoma (Murine B16 melanoma): INHIBITED | Inhibited in vitro: Human umbilical venous endothelial cells [14]: INHIBITED | Inhibition of rabbit NHE3 (rabbit NHE3): found to inhibit rabbit NHE3; also recorded: inhibitor of NHE3 | Impact on tumor volume (B16 melanoma; compound 1436 10 mg/kg/every 3 days): no significant impact on tumor volume | Tumor growth effect of single agent compared with combination (B16 melanoma; squalamine 15 mg/kg/day, compound 1436 alone in a tolerable schedule): Neither administration of squalamine at 15 mg/kg/day nor compound 1436 alone in a tolerable schedule could achieve this effect | % Viability ([15]; 0.5 μM): 91% | % Viability ([15]; 10 μM): 95% | Lymphocyte viability ([15]; 10 μg/ml): 95% | % Viability ([15]; 20 μM): 90.1% | Vitelline capillary regression ([16]; 0.001 μg applied): +/- | Vitelline capillary regression ([16]; 0.01 μg applied): + | Vitelline capillary regression ([16]; 0.1 μg applied): + | Vitelline capillary regression ([16]; 1 μg applied): + | Vitelline capillary regression ([16]; 10 μg applied): + | Effect on chick embryo vessels ([16]; 3- to 5-day chick embryo): vitelline capillary regression with about the same potency as squalamine
